In patent US8431603B2, “3-phenylpyrazolo[5,1-b]thiazole compounds” (Eisai R&D Management Co., Ltd., priority 2008, dated 2013):

Columns and labels:
[1] = system: Balb/c mice; assay: Light/dark box test in mice (anxiolytic effect); type: in vivo; details: for anxiolytic effect in the light/dark box test: 30 mg/kg, oral administration; for minimal effective dose: Mus musculus, 1 h, minimum dose significantly prolonging time spent in the light box vs vehicle, oral, one hour prior to test
Description: The light/dark box test in mice was carried out according to a modified method of Belzung C., Misslin R., Vogel E. et al. (Reference; Behavioural effects of the benzodiazepine receptor partial agonist RO16-6028 in mice, Psychopharmacology, 97, 388-391, 1989). The test apparatus used was a light/dark box comprising a covered black acrylic box (dark box; 15×10×20 cm), an uncovered white acrylic box (light box; 15×20×20 cm) and a black acrylic tunnel (10×7×4.5 cm) which connects dark box and light box and enables a mouse to freely move back and forth between the dark box and light box. In this test apparatus, however, a transparent acrylic polymer was used for the front side (20×20 cm) and back side (20×20 cm) of the light box to allow observation of the behavior. After setting illumination so that the light intensity of the floor of the light box was 150 Lux, 5-week-old male Balb/c mice (purchased from Nihon Charles River) were introduced into the dark box at the beginning of the test. For the test, the tested compound was suspended in 5% dimethylsulfoxide, 5% Cremopor EL and 90% physiological saline and orally administered to the test animals one hour prior to the start of the test.
The time spent in the light box was measured as an index of the anxiolytic effect, with “spend in the light box” defined as the state in which all limbs of the mice were on the floor of the light box. […] The statistical significance between the vehicle-treated group and the test compound-treated groups was analyzed by one way analysis of variance followed by Dunnett multiple comparison when multiple doses were set for the same test, and by the Mann-Whitney U test when only one dose was set.

[2] = target: T1, human CRFR1 (Homo sapiens, UniProt P34998); assay: CRFR1 binding test (SPA competition with 125I-CRF, membrane fraction of CRFR1-expressing HEK293 cells); details: 100 pM 125I-CRF, room temperature, read-out: CRF1 receptor binding capacity IC50
T1 construct: The full-length CRFR1 gene was obtained by PCR using human brain cDNA library; expressed in transfected cells; pcDNA3.1 expression vector; membrane fraction used
T1 sequence (P34998 24-415): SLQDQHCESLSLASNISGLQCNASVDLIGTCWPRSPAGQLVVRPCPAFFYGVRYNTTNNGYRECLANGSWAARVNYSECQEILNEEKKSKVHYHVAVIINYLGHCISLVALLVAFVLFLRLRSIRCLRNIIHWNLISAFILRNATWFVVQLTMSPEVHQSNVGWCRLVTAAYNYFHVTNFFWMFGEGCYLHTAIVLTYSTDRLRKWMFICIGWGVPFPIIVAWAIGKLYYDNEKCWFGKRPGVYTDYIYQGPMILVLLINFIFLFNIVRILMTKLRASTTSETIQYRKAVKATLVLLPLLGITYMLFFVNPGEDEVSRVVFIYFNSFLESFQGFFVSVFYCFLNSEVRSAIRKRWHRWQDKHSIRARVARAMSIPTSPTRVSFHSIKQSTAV
Description: The binding capacities of the compounds of the invention for CRF1 receptor (CRFR1) were evaluated.
The membrane fraction of human CRFR1 high-expressing cells was used as the material for a CRFR1 binding experiment. The CRFR1-expressing cells were prepared in the following manner. The full-length CRFR1 gene was obtained by PCR using human brain cDNA library (QuickClone™ Clontech). The obtained DNA fragment was inserted into a cloning vector and the nucleotide sequence was confirmed. cDNA having the proper nucleotide sequence was linked to an expression vector (pcDNA3.1™, Invitrogen). The CRFR1 expression vector was introduced into HEK293 cell, and the resistant cells which proliferated in culture medium containing G418 (1 mg/ml) were cloned by the limiting dilution method. Out of the cloned cells, cells having high binding affinity between the membrane fraction per unit of protein and sauvagine were selected according to the following binding experiment. And the selected cells were used for the experiments.
The cloned cells obtained in (1) were collected and suspended in ice-cooled membrane buffer (50 mM Tris-HCl, 5 mM MgCl2, 2 mM EGTA, 1 mM DTT, protease inhibitor cocktail (COMPLETE™, Roche Diagnostics) pH 7.3), and then the cells were disrupted with a Polytron ([…]) while cooling on ice (level 5, 10 seconds, 2-5 times, ice-cooling) and then centrifuged (2,000 rpm, 5 minutes, 4° C.), after which the supernatant was collected. Membrane buffer was added to the precipitate, and the mixture was subjected to Polytron treatment (same conditions as above) and centrifuged (same conditions as above), and the obtained supernatant was collected and combined with the previous supernatant. This was centrifuged (13,000 rpm (18,000×g), 30 minutes, 4° C.) to prepare cell membranes. The precipitated cell membranes were suspended in membrane buffer and disrupted with a Polytron (level 5, 10 seconds, 3-5 times, ice-cooling) to prepare a dispersed suspension. The protein assay was performed.
The following method (1) or (2) was performed for use as the cell membrane fraction.
(1) The above dispersed suspension was diluted with membrane buffer containing 0.1% BSA to a protein concentration of 200 μg/ml, for use as the cell membrane fraction
(2) The above dispersed suspension was frozen for preservation, and if needed, thawed, re-dispersed and diluted for used as the cell membrane fraction.
A binding competition experiment with CRF was conducted by the SPA (GE Healthcare) method using a 96-well plate. A mixture of 5 μg of the cell membrane fraction protein, 1 mg of SPA beads and 100 pM ^125I-CRF (Perkin Elmer) was allowed to stand at room temperature for at least 2 hours in the presence of a test compound, and the radioactivity of each well after centrifugation (1,200 rpm (260×g), 5 minutes, room temperature) was measured with a TopCount (registered trademark; Perkin Elmer).
The radioactivity with addition of a 4,000-fold excess of non-radioactive sauvagine as the nonspecific binding was subtracted from each value, and the resulting value was expressed as a percentage (% of control), with 100% as the radioactivity without addition of the test compound (control). The IC50 value was calculated from a binding inhibition curve drawn with test compound concentration on the horizontal axis and % (% of control) on the vertical axis.

| SMILES | anxiolytic effect in the light/dark box test [1] | minimal effective dose [1] | IC50 [2] |
| --- | --- | --- | --- |
| CCCCN(c1c(OC)nn2c(-c3c(OC)cc(COC)cc3OC)csc12)C1CCOCC1 [Example 1, N-Butyl-3-[2,6-dimethoxy-4-(methoxymethyl)phenyl]-6-methoxy-N-(tetrahydro-2H-pyran-4-yl)pyrazolo[5,1-b][1,3]thiazole-7-amine] | statistically significant effects | 30 mg/kg |  |
| CCCCN(c1c(OC)nn2c(-c3c(OC)cc(COCC)cc3OC)csc12)C1CCOCC1 [Example 2, N-Butyl-3-[4-(ethoxymethyl)-2,6-dimethoxyphenyl]-6-methoxy-N-(tetrahydro-2H-pyran-4-yl)pyrazolo[5,1-b][1,3]thiazole-7-amine] | statistically significant effects | 30 mg/kg |  |
| CCOCc1cc(OC)c(-c2csc3c(N(CCC4CC4)C4CCOCC4)c(OC)nn23)c(OC)c1 [Example 3, N-(2-Cyclopropylethyl)-3-[4-(ethoxymethyl)-2,6-dimethoxyphenyl]-6-methoxy-N-(tetrahydro-2H-pyran-4-yl)pyrazolo[5,1-b][1,3]thiazole-7-amine] | statistically significant effects | 30 mg/kg | 65 nM |
| CCOCc1cc(OC)c(-c2csc3c(N(CC4CCC4)C4CCOCC4)c(OC)nn23)c(OC)c1 [Example 4, N-(Cyclobutylmethyl)-3-[4-(ethoxymethyl)-2,6-dimethoxyphenyl]-6-methoxy-N-(tetrahydro-2H-pyran-4-yl)pyrazolo[5,1-b][1,3]thiazole-7-amine] | statistically significant effects | 30 mg/kg | 34 nM |
| CCOCc1cc(OC)c(-c2csc3c(N(CC4CC4)C4CCCOC4)c(OC)nn23)c(OC)c1 (stereo not drawn) [Example 5, N-(Cyclopropylmethyl)-3-[4-(ethoxymethyl)-2,6-dimethoxyphenyl]-6-methoxy-N-(tetrahydro-2H-pyran-3-yl)pyrazolo[5,1-b][1,3]thiazole-7-amine] | statistically significant effects | 30 mg/kg | 29 nM |
| CCCN(c1c(OC)nn2c(-c3c(OC)cc(COCC)cc3OC)csc12)C1CCCOC1 (stereo not drawn) [Example 6, 3-[4-(Ethoxymethyl)-2,6-dimethoxyphenyl]-6-methoxy-N-propyl-N-(tetrahydro-2H-pyran-3-yl)pyrazolo[5,1-b][1,3]thiazole-7-amine] |  |  | 39 nM |
| COCc1cc(OC)c(-c2csc3c(N(CC4CCC4)C4CCOCC4)c(OC)nn23)c(OC)c1 [Example 7, N-(Cyclobutylmethyl)-3-[2,6-dimethoxy-4-(methoxymethyl)phenyl]-6-methoxy-N-(tetrahydro-2H-pyran-4-yl)pyrazolo[5,1-b][1,3]thiazole-7-amine] |  |  | 46 nM |
| CCCCCN(c1c(OC)nn2c(-c3c(OC)cc(COC)cc3OC)csc12)C1CCOCC1 [Example 8, 3-[2,6-Dimethoxy-4-(methoxymethyl)phenyl]-6-methoxy-N-pentyl-N-(tetrahydro-2H-pyran-4-yl)pyrazolo[5,1-b][1,3]thiazole-7-amine] |  |  | 63 nM |
| COCc1cc(OC)c(-c2csc3c(N(CC4CC4)C4CCOCC4)c(OC)nn23)c(OC)c1 [Example 9, N-(Cyclopropylmethyl)-3-[2,6-dimethoxy-4-(methoxymethyl)phenyl]-6-methoxy-N-(tetrahydro-2H-pyran-4-yl)pyrazolo[5,1-b][1,3]thiazole-7-amine] | statistically significant effects | 30 mg/kg |  |
| CCCN(c1c(OC)nn2c(-c3c(OC)cc(COC)cc3OC)csc12)C1CCOCC1 [Example 10, 3-[2,6-Dimethoxy-4-(methoxymethyl)phenyl]-6-methoxy-N-propyl-N-(tetrahydro-2H-pyran-4-yl)pyrazolo[5,1-b][1,3]thiazole-7-amine] | statistically significant effects | 30 mg/kg |  |
| COCc1cc(OC)c(-c2csc3c(N(CC4CC4)C4CCCOC4)c(OC)nn23)c(OC)c1 (stereo not drawn) [Example 11, N-(Cyclopropylmethyl)-3-[2,6-dimethoxy-4-(methoxymethyl)phenyl]-6-methoxy-N-(tetrahydro-2H-pyran-3-yl)pyrazolo[5,1-b][1,3]thiazole-7-amine] |  |  | 37 nM |
| COCc1cc(OC)c(-c2csc3c(N(CC4CC4C)C4CCOCC4)c(OC)nn23)c(OC)c1 (stereo not drawn) [Example 12, 3-[2,6-Dimethoxy-4-(methoxymethyl)phenyl]-6-methoxy-N-[(2-methylcyclopropyl)methyl]-N-(tetrahydro-2H-pyran-4-yl)pyrazolo[5,1-b][1,3]thiazole-7-amine] |  |  | 82 nM |
| CCCN(c1c(OC)nn2c(-c3c(Cl)cc(COC)cc3OC)csc12)C1CCOCC1 [Example 13, 3-[2-Chloro-6-methoxy-4-(methoxymethyl)phenyl]-6-methoxy-N-propyl-N-(tetrahydro-2H-pyran-4-yl)pyrazolo[5,1-b][1,3]thiazole-7-amine] | statistically significant effects | 30 mg/kg |  |
| COc1cc(C#N)cc(OC)c1-c1csc2c(N(CC3CCOCC3)CC3CC3)c(OC)nn12 [Example 15, 4-{7-[(Cyclopropylmethyl)(tetrahydro-2H-pyran-4-ylmethyl)amino]-6-methoxypyrazolo[5,1-b][1,3]thiazol-3-yl}-3,5-dimethoxybenzonitrile] |  |  | 70 nM |
| COc1cc(OC)c(-c2csc3c(N(CC4CCOCC4)CC4CC4)c(OC)nn23)c(OC)c1 [Example 16, N-(Cyclopropylmethyl)-6-methoxy-N-(tetrahydro-2H-pyran-4-ylmethyl)-3-(2,4,6-trimethoxyphenyl)-pyrazolo[5,1-b][1,3]thiazole-7-amine] |  |  | 29 nM |
| CCCN(c1c(OC)nn2c(-c3c(OC)cc(COC4CCC4)cc3OC)csc12)C1CCOCC1 [Example 17, 3-{4-[(Cyclobutyloxy)methyl]-2,6-dimethoxyphenyl}-6-methoxy-N-propyl-N-(tetrahydro-2H-pyran-4-yl)pyrazolo[5,1-b][1,3]thiazole-7-amine] |  |  | 36 nM |
